Here are results for 8 molecules from US11213512B2, “Bis-amino acid based compound and use thereof” (THE CURATORS OF THE UNIVERSITY OF MISSOURI, priority 2016, dated 2022).

As usually defined, the melting point is the temperature of the solid-liquid transition.

Series [1] has as its system Tet^R E. coli. Nature of the series: MIC, CLSI/NCCLS broth microdilution. The settings on record: 24 h; for MIC: Escherichia coli, read-out: Minimal Inhibitory Concentration (MIC) E. coli Tet^R; for Minimal Inhibitory Concentration (MIC) E. coli Tet^R: >80% growth inhibition, 37° C., substance alone. It counts as cell-based, Escherichia coli. The procedure: (§1) Two different strains of E. coli (Gram-negative) were used. The laboratory strain of E. coli, K-12 (ATCC Accession No. 700926), was used for preliminary MIC determinations. The tetracycline resistant strain of E. coli (Tet^R) was prepared by transforming competent JM109 E. coli (Promega) with the pBR322 plasmid (Carolina Biologicals) using the manufacturers protocol. This plasmid contains two resistance genes: the tetA gene expresses the tetracycline resistance TetA efflux pump (Sapunaric and Levy, Microbiol. 2005, 151, 2315-2322) and the amp^R gene expresses a β-lactamase enzyme (Bolivar, et al; Gene 1977, 2, 95-113) that cleaves the four membered ring of penicillin derivatives. The resulting E. coli, which we designate Tet^R E. coli, is both tetracycline and ampicillin resistant. The TetA efflux pump belongs to the major facilitator superfamily (MFS), spans the cytoplasmic membrane, and transports tetracycline from the cell cytoplasm to the periplasmic space (Thanassi, et al., J. Bacteriol. 1995, 177, 998-1007). This active efflux utilizes the proton gradient as an energy source (Levy, Antimicrob. Agents Chemother. 1992, 36, 695-703). One Gram-positive strain, S. aureus (ATCC Accession No. 29213), used for MIC study expresses the MFS type NorA efflux pump and is methicillin sensitive. MFS type efflux pumps are clinically relevant for resistance in both Gram-positive and Gram-negative bacteria (Sun, et al., Biochem. Biophys. Res. Commun. 2014, 453, 254-267). A Staphylococcus aureus 1199B strain that overexpresses the NorA efflux pump was also used to conduct checkerboard experiments (see, Example 8 below). This strain of S. aureus 1199B is resistant to both norfloxacin and ethidium bromide.
(§2) K-12 E. coli and S. aureus were acquired from ATCC. The S. aureus strain was used in the BSL-2 facility. K-12 E. coli was grown in L. B. Miller media (Sigma-Aldrich) and S. aureus was grown in cation adjusted MHII media (Sigma-Aldrich). Tet^R E. coli was grown in L. B. Miller media containing 100 μg/mL Ampicillin.
(§3) MIC experiments were performed as described in the Clinical and Laboratory Standards Institute (CLSI) standard microdilution protocols. Bacteria was grown overnight from one CFU in media without antibiotics. Tet^R E. coli was grown in media containing 100 μg/mL Ampicillin. On the day of experiment, bacteria were knocked back to O.D. 600 nm=0.550 in the same media. These exponential phase bacteria were then diluted in antibiotics-free media to get […]. In a 96-well plate either L. B. Miller or MHII media was added followed by serially diluted compounds 1-11, tetracycline, or ampicillin. All the tryptophan based compounds were dissolved in DMSO and the final concentration of DMSO in each well was kept constant at 0.5% (v/v).
(§4) For the combination experiments, first, the BT or control was added to the media in the well followed by the antibiotics. The contents of the well were mixed before adding 20 μL of bacteria to get 4×10^5 CFU/mL per well. The plates were incubated at 37° C., 200 RPM for 24 hours before collecting results on the Biotek Cytation 3 plate reader. No more than three plates were stacked on top of each other at a time. Optical density of the wells was determined at λ=600 nm. Cells alone were considered as 0% inhibition and media alone was considered as 100% inhibition. Any inhibition greater than 80% was considered as the MIC. The results were reproduced three times before reporting.
(§5) All minimum inhibitory concentration (MIC) values for compounds 1-11 were determined according to the methods prescribed by the National Committee for Clinical Laboratory Standards (NCCLS, Methods for Dilution Antimicrobial Susceptibility Tests for Bacteria that grow aerobically; National Committee for Clinical Laboratory Standards 2000, 5th Edition, M7-A5). […]
(Dilution methods test growth across graded concentrations, often in twofold steps.)

Series [2] deals with S. aureus (ATCC Accession No. 29213). The series is described as follows: MIC, CLSI/NCCLS broth microdilution. It counts as cell-based, Staphylococcus aureus. As to conditions: read-out: Minimal Inhibitory Concentration (MIC) S. aureus. The procedure:
as §1, §2, §3, §4, §5

For series [3], the system named is E. coli K12. Nature of the series: MIC, CLSI/NCCLS broth microdilution. It is filed as cell-based, Escherichia coli. The settings on record: read-out: Minimal Inhibitory Concentration (MIC) E. coli K12. The procedure: as §1, §2, §3, §4, §5
Series [4] has as its system HEK-293 cells. Nature of the series: Mammalian cell permeability and vitality, confocal microscopy (propidium iodide / fluorescein diacetate). It is filed as cell-based, human. On the procedure:
To test the permeability of HEK-293 cells, the cells were cultured in growth medium as described above. HEK-293 (90% confluent) were then seeded in a 96-well plate to get 30,000 cells/well. After 24 hours of incubation at 37° C. and 5% CO2, the spent media was replaced with media (DMEM and 10% FBS) containing compound 2 at either 20 μM or 80 μM. […] Triton X-100 at 0.1%—by volume (1670 μM) and DMSO 0.5% (v/v) were also used as controls. After 2 hours of incubation, spent media was replaced with PBS containing propidium iodide (30 μM) and fluorescein diacetate (60 μM) and incubated at 37° C. and 5% CO2. After 2 hour of incubation, the spend media was replaced with fresh PBS and the cells were observed under Zeiss LSM 700 confocal microscope. The images were reported without any alterations. The gain and the intensity in all the images were kept constant.
A compound that inhibits bacterial growth and penetrates into the microbe's cytosol may also penetrate into mammalian cells. A similar microscopic study was conducted with the human embryonic kidney (HEK-293) cell line. In this case, only compound 2 was studied. […] The microscopic study was therefore conducted at 20 μM, a value well below any inhibitory concentration, and at 80 μM, a concentration above all three MIC values. The 80 μM concentration was used to confirm the […] of 2 and to establish the lack of serum inhibition.

Series [5] relates to Tet^R E. coli. The series is described as follows: Membrane permeability and viability, confocal microscopy (propidium iodide / fluorescein diacetate). The settings on record: 0.1% (~1,670 μM) control detergent. It counts as cell-based, Escherichia coli. On the procedure: To test the membrane permeability of the Tet^R E. coli, the bacteria was first grown overnight from one CFU in media containing 100 μg/mL Ampicillin at 37° C. and 200 RPM. Tet^R E. coli was then knocked back to O.D. 600 nm=0.550 before use. In a sterile test tube, cells were added followed by either compounds 2 or 10 at half-MIC concentrations and incubated at 37° C. and 200 RPM. The concentration of DMSO was kept constant at 0.5% —by volume in each case. After 30 minutes of incubation, the cells were washed by centrifugation at 3000×g for 5 minutes and re-suspended in sterile phosphate buffered saline (PBS). Propidium iodide (30 μM, Thermo-Fischer) and fluorescein diacetate (60 μM, Sigma-Aldrich) were added to the Tet^R E. coli cells in the PBS, mixed by vortexing and incubated at 37° C. and 200 RPM. After 30 minutes, the cells were washed again by centrifugation at 3000×g for 5 minutes. The pellet was suspended in a fresh PBS, loaded onto a clean glass slide, covered with a cover slip and observed under Zeiss LSM 700 confocal microscope.
The study was designed to assess the membrane permeability and viability of the E. coli in the presence of BTs 2 and 10. The three panels in FIG. 6 show the bright field (BF) microscopic images (top row), the result when fluorescein diacetate (FDA) is present (middle row), and the presence of propidium iodide (PI, bottom row), if any. […] When it does, it intercalates in DNA, which leads to enhanced fluorescence. Fluorescein diacetate is incorporated into the cells during growth, but is not fluorescent. If the organism is or remains vital, the diester will be hydrolyzed and fluorescein will be observed by its fluorescence emission.
Controls for the permeability/viability assay were included for E. coli in the presence of a final concentration of 0.5% (v/v) DMSO (the vehicle for administration of BTs), and a final concentration of 0.1% […] Triton X-100. […] Thus, less than or equal to 0.5% DMSO (v/v) was always used; the control is shown in the second column. Triton X-100 is a potent detergent, which was used at 0.1% or ˜1,670 μM.

Setting [6] is: Staphylococcus aureus, ATCC29213, 24 h.
The mark [7] stands for this setting: >80% growth inhibition, 24 h, 37° C.

Where two headings read alike, the source gives them in different places.

As for `CC1(C)S[C@@H]2[C@H](NC(=O)[C@H](N)c3ccccc3)C(=O)N2[C@H]1C(=O)O` [ampicillin, reference compound], the MIC in series [1] is greater than 1000 µM.

For the molecule `Cl.Cl.N[C@@H](Cc1c[nH]c2ccccc12)C(=O)NCCCCCCNC(=O)[C@@H](N)Cc1c[nH]c2ccccc12` [Compound 9, (2S,2′S)-1,1′-(Hexane-1,6-diylbis(azanediyl))bis(3-(1H-indol-3-yl)-1-oxopropan-2-aminium) chloride], the melting point is 193 °C (dec.). Also, in series [2] (setting [6]), the MIC is greater than 128 µM. In addition, the MIC in series [3] (Escherichia coli, K12, 24 h) is greater than 128 µM. For the same molecule, in series [1], the MIC is 128 µM.

With `Cl.Cl.N[C@H](Cc1c[nH]c2ccccc12)C(=O)NCCCCNC(=O)[C@@H](N)Cc1c[nH]c2ccccc12` [Compound 8, (S)-1-((4-((R)-2-Ammonio-3-(1H-indol-3-yl)propanamido)butyl)amino)-3-(1H-indol-3-yl)-1-oxopropan-2-aminium chloride], the melting point is 204 °C (dec.). Moreover, the MIC in series [2] (setting [6]) was greater than 128 µM. For the same molecule, the MIC in series [3] (Escherichia coli, K12, 24 h) is greater than 128 µM. Further, the MIC in series [1] was greater than 128 µM.

With `CN(C)[C@@H]1C(O)=C(C(N)=O)C(=O)[C@@]2(O)C(O)=C3C(=O)c4c(O)cccc4[C@@](C)(O)[C@H]3C[C@@H]12` [tetracycline, reference compound], the MIC was roughly 3 µM in series [3] (Escherichia coli, K12, >80% growth inhibition, 24 h, 37° C.) and 900 ± 100 µM in series [1]. Besides, the “Minimal Inhibitory Concentration (MIC) E. coli Tet^R” value (from here on “Minimal Inhibitory Concentration”) in series [1] came out at 900 µM.

As to Triton X-100 [reference compound], the “propidium iodide penetration (membrane permeability)” value in series [4] is on record as “strong signal from propidium iodide”. Besides, the “viability (fluorescein diacetate fluorescence)” value in series [5] was “essentially all the cells were killed”.

In the case of `Cl.N[C@@H](Cc1c[nH]c2ccccc12)C(=O)Nc1ccccc1` [Compound 11, (S)-3-(1H-Indol-3-yl)-1-oxo-1-(phenylamino)propan-2-aminium chloride], the MIC in series [2] (setting [7]) was greater than 128 µM; in series [2] (setting [6]) it was greater than 128 µM; in series [3] (setting [7]) it was greater than 128 µM; in series [3] (Escherichia coli, K12, 24 h) it was greater than 128 µM; in series [1], greater than 128 µM. Also, in series [1], the “Minimal Inhibitory Concentration” value was greater than 128 µM.

As to `Cl.Cl.NCC(=O)Nc1cccc(NC(=O)CN)c1` [Compound 1, 2,2′-(1,3-Phenylenebis(azanediyl))bis(2-oxoethanaminium) chloride], the melting point was 310 °C (dec.). In addition, the MIC in series [2] (setting [7]) is greater than 128 µM. Also, the MIC in series [2] (setting [6]) was greater than 128 µM. Besides, the MIC in series [3] (setting [7]) is greater than 128 µM. The MIC in series [3] (Escherichia coli, K12, 24 h) is greater than 128 µM. For the same molecule, in series [1], the “Minimal Inhibitory Concentration” value is greater than 128 µM and the MIC was greater than 128 µM.

The molecule `O=C(CCc1c[nH]c2ccccc12)Nc1cccc(NC(=O)CCc2c[nH]c3ccccc23)c1` [Compound 4, N,N′-(1,3-Phenylene)bis(3-(1H-indol-3-yl)propanamide)] showed a melting point of 154 to 156 °C. Besides, the MIC in series [2] (setting [6]) is greater than 128 µM. In series [3] (Escherichia coli, K12, 24 h), the MIC was greater than 128 µM. Besides, the MIC in series [1] was greater than 128 µM.
